Holding throughout (set-up): scale not given: the % may be the effect or the level left
Assay [1] addresses Mitogen-activated protein kinase 3 (Homo sapiens) (UniProt P27361). The experiment in a line: Inhibition of human ERK1 assessed as enzyme activity at 1 uM using myelin basic protein as substrate preincubated for 20 mins followed by [gamma-33P]-ATP addition and measured after 120 mins by radiometric Hot-SpotSM Kinase assay relative to control.
For assay [2], the target named is Serine/threonine-protein kinase SBK1 (Homo sapiens) (UniProt Q52WX2). The experiment in a line: Inhibition of human SBK1 assessed as enzyme activity at 1 uM using LCGRTGRRNSI as substrate preincubated for 20 mins followed by [gamma-33P]-ATP addition and measured after 120 mins by radiometric Hot-SpotSM Kinase assay relative to control.
Sequence of Serine/threonine-protein kinase SBK1 (Homo sapiens) (Q52WX2 whole entry): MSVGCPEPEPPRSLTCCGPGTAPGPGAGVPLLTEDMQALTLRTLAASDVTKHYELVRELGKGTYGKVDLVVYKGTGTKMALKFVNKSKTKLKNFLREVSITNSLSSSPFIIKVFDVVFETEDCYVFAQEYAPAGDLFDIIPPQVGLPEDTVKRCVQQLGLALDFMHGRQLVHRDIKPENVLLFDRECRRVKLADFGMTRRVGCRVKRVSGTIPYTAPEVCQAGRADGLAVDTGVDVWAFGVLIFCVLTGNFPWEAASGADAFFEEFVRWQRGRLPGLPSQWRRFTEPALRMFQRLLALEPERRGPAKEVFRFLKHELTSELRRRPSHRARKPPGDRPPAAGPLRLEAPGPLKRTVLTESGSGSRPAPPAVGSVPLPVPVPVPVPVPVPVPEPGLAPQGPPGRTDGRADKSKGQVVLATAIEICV
The target of assay [3] is Cyclin-dependent kinase 5/CDK5 activator 1 (Homo sapiens) (UniProt Q00535+Q15078). The experiment in a line: Inhibition of human CDK5/p25 assessed as enzyme activity at 1 uM using RB Protein as substrate preincubated for 20 mins followed by [gamma-33P]-ATP addition and measured after 120 mins by radiometric Hot-SpotSM Kinase assay relative to control. The class given is protein-complex assay.
Sequence of Cyclin-dependent kinase 5/CDK5 activator 1 (Homo sapiens) (Q00535 whole entry): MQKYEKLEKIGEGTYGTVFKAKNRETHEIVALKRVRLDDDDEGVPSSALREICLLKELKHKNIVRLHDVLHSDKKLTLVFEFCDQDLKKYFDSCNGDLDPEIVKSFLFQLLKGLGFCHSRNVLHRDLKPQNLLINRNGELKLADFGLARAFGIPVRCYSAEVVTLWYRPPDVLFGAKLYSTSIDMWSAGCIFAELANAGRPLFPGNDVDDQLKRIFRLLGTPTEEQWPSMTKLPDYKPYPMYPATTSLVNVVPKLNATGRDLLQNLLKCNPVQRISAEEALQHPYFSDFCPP
Sequence of Cyclin-dependent kinase 5/CDK5 activator 1 (Homo sapiens) (Q15078 99-307 partner limits assumed): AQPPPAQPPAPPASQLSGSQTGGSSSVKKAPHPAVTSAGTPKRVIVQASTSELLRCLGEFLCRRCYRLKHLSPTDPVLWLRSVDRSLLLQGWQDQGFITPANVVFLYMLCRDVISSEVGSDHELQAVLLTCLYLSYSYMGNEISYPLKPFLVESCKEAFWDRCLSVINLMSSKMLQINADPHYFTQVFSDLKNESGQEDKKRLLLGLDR

Assay [4] concerns the target T1, Discoidin domain-containing receptor 2 (Homo sapiens) (UniProt Q16832).
T1 sequence (whole entry): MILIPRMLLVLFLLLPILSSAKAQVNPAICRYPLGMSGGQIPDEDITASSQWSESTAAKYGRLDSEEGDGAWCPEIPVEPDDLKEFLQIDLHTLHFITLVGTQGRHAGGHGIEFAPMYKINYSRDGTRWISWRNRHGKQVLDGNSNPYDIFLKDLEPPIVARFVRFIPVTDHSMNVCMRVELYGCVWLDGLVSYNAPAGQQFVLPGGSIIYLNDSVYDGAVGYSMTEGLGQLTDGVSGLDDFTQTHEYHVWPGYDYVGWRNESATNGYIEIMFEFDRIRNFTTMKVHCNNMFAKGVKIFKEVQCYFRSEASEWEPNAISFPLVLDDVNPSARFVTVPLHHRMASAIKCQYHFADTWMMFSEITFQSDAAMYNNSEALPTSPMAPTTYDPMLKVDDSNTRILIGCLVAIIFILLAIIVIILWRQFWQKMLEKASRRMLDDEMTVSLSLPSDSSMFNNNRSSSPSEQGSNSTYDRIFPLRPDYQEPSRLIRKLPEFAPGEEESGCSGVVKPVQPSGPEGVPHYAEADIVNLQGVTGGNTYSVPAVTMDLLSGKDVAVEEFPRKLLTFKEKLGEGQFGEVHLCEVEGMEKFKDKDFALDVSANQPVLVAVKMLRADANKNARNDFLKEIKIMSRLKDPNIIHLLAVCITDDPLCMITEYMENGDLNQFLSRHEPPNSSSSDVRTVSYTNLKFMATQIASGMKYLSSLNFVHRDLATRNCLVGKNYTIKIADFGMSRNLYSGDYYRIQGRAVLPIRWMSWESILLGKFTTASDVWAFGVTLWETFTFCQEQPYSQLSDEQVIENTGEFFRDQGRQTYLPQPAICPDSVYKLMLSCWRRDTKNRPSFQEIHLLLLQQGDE
The experiment in a line: Inhibition of human DDR2 assessed as enzyme activity at 1 uM using KKSRGDYMTMQIG as substrate preincubated for 20 mins followed by [gamma-33P]-ATP addition and measured after 120 mins by radiometric Hot-SpotSM Kinase assay relative to control.

Assay [5] has as its target T2, Serine/threonine-protein kinase NLK (Homo sapiens) (UniProt Q9UBE8).
T2 sequence (whole entry): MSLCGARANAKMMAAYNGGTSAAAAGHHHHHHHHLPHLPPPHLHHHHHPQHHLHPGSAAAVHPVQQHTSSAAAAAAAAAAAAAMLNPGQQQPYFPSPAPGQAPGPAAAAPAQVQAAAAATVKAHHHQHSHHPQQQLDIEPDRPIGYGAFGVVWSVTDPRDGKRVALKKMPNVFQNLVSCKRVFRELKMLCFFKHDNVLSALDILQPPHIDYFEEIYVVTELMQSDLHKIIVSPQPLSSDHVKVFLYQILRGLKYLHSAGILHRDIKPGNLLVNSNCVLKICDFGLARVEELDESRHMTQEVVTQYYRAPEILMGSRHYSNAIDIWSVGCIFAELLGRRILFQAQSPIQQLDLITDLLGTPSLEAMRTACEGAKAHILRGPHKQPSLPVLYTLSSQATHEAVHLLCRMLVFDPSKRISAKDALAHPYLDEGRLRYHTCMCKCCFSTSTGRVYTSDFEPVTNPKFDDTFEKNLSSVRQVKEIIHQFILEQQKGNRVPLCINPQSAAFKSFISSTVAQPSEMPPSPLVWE
The experiment in a line: Inhibition of human NLK assessed as enzyme activity at 1 uM using myelin basic protein as substrate preincubated for 20 mins followed by [gamma-33P]-ATP addition and measured after 120 mins by radiometric Hot-SpotSM Kinase assay relative to control.

Assay [6] deals with Serine/threonine-protein kinase pim-3 (Homo sapiens) (UniProt Q86V86). The experiment in a line: Inhibition of human PIM3 assessed as enzyme activity at 1 uM using RSRHSSYPAGT as substrate preincubated for 20 mins followed by [gamma-33P]-ATP addition and measured after 120 mins by radiometric Hot-SpotSM Kinase assay relative to control.
Assay [7] has as its target Epidermal growth factor receptor (Homo sapiens) (UniProt P00533). The experiment in a line: Inhibition of human EGFR assessed as enzyme activity at 1 uM using poly[Glu:Tyr] (4:1) as substrate preincubated for 20 mins followed by [gamma-33P]-ATP addition and measured after 120 mins by radiometric Hot-SpotSM Kinase assay relative to control.
Assay [8] addresses T3, Protein kinase C zeta type (Homo sapiens) (UniProt Q05513).
T3 sequence (whole entry): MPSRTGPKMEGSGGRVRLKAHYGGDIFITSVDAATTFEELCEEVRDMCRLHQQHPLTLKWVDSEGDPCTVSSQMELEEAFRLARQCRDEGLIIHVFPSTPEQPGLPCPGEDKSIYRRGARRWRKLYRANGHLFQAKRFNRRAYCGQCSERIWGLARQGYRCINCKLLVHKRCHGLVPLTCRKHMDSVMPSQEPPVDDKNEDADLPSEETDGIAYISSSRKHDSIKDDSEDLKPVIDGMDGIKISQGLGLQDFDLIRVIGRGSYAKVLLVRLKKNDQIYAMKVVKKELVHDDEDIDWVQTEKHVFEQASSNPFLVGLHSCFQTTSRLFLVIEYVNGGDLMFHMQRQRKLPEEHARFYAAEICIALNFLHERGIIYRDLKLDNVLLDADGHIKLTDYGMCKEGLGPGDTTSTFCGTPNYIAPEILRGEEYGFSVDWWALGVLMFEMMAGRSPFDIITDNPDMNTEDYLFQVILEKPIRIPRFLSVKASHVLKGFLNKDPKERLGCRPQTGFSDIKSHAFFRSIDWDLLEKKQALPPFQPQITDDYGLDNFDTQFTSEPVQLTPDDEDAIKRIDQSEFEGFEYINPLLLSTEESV
The experiment in a line: Inhibition of human PKCzeta assessed as enzyme activity at 1 uM using ERMRPRKRQGSVRRRV as substrate preincubated for 20 mins followed by [gamma-33P]-ATP addition and measured after 120 mins by radiometric Hot-SpotSM Kinase assay relative to control.

Sequence of Mitogen-activated protein kinase 3 (Homo sapiens) (P27361 whole entry): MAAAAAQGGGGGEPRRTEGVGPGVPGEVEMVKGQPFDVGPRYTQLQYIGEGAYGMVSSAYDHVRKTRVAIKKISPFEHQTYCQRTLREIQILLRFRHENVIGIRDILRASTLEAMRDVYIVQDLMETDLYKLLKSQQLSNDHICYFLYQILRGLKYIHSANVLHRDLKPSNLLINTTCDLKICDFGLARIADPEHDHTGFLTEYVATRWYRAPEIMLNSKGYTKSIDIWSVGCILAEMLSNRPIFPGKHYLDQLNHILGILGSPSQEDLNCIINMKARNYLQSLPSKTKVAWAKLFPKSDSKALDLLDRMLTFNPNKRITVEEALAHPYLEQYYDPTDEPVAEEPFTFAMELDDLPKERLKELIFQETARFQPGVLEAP
Sequence of Epidermal growth factor receptor (Homo sapiens) (P00533 whole entry): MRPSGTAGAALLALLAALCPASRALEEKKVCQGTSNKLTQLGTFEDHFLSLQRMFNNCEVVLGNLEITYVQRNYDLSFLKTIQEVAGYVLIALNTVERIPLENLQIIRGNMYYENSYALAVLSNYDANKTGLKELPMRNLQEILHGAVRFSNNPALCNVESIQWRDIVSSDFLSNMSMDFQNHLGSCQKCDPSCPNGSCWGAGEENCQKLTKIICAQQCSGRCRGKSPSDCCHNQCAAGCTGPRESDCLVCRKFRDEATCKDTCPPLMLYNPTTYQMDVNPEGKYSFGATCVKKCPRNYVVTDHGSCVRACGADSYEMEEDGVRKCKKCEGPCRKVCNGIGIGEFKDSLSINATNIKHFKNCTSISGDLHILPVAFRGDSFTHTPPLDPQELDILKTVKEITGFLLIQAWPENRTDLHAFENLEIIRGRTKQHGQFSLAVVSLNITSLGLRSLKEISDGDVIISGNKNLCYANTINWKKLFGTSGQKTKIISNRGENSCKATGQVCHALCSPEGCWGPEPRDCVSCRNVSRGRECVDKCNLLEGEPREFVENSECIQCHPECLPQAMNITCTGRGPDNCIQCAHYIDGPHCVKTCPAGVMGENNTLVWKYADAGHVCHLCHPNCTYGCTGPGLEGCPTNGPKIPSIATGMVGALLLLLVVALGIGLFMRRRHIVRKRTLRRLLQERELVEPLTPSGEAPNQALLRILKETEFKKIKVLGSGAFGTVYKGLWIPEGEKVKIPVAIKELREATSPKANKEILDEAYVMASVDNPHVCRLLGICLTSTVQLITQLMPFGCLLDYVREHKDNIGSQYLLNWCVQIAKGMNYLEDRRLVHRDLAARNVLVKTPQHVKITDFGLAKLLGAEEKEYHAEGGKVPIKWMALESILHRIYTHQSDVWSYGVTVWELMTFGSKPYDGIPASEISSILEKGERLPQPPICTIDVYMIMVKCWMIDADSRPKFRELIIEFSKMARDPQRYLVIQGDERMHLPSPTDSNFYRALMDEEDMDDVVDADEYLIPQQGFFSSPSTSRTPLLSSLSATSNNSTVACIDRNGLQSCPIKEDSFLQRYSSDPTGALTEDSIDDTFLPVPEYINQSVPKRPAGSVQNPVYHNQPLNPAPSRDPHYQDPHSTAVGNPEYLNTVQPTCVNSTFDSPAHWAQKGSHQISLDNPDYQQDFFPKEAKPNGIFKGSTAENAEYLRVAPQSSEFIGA

For the compound `C[C@H](Nc1ncnc2nc[nH]c12)c1cc2cccc(Cl)c2c(=O)n1-c1ccccc1`, the Activity is 95.9% in assay [1]; 99.5% in assay [2]; 92.7% in assay [3]; 110% in assay [4]; 96.2% in assay [5]; 95.4% in assay [6]. Moreover, the Activity was 99.1% in assay [7] and 89.9% in assay [8].

On to `CC[C@H](Nc1ncnc2[nH]cnc12)c1nc2cccc(F)c2c(=O)n1-c1ccccc1`, for which the Activity in assay [1] amounted to 96%; in assay [2], 101%; in assay [3], 99.8%; in assay [4] it was 106%; in assay [5] it was 103%; in assay [6], 104%. The Activity in assay [7] stood at 95.4%; in assay [8] it was 91.5%.

Turning to `CC(C)Oc1ccc(-c2nn([C@@H](C)c3oc4ccc(F)cc4c(=O)c3-c3cccc(F)c3)c3ncnc(N)c23)cc1F` [UMBRALISIB], the Activity in assay [1] was 95.8%; in assay [2], 98.8%; in assay [3], 90.3%; in assay [4], 104%; in assay [5], 98.3%; in assay [6], 102%. The results for the Activity in assay [7] and in assay [8] were 97.7% and 93.6%, respectively.

Values taken from ChEMBL document CHEMBL5715954, “Silencing c-Myc translation as a therapeutic strategy through targeting PI3Kδ and CK1ε in hematological malignancies” (Blood, 2017).
